# In article PMC6959561, “Expression of acyl-CoA-binding protein 5 from Rhodnius prolixus and its inhibition by RNA interference” (PLoS ONE, 2020):
# Biological target: T1, RpACBP-5 (acyl-CoA-binding protein 5) (Rhodnius prolixus, UniProt M4WG04)
# T1 construct: recombinant RpACBP-5 expressed in E. coli BL21 (DE3) (GenBank KC417418; 261 bp)
# Assay: isothermal titration calorimetry (VP-ITC, […]°C, pH […])
# T1 sequence (M4WG04 entry or part of it): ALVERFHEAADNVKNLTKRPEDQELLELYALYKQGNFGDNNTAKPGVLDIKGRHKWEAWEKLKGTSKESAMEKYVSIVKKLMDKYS
structure (smiles),measurement,value
CCCCCCCCCCCC(=O)SCCNC(=O)CCNC(=O)[C@H](O)C(C)(C)COP(=O)(O)OP(=O)(O)OC[C@H]1O[C@@H](n2cnc3c(N)ncnc32)[C@H](O)[C@@H]1OP(=O)(O)O [lauroyl-CoA],Kd,399 ± 266 nM
